Data taken from PubChem BioAssay (NCI).
Where “and” joins values, the source holds several entries; their conditions need not be identical. Identical values can stand only once.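 Cultured in 96-well plates, cells were exposed to test compound for 48 hours across five concentrations. At the GI50, growth is halved. TGI: total growth inhibition.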

Experiments:
Assay in all cases: NCI tumour cell line growth inhibition, 48 h
HT29 colon = system: HT29 colon
SK-MEL-5 melanoma = system: SK-MEL-5 melanoma
SW-620 colon = system: SW-620 colon
RXF 393 renal = system: RXF 393 renal
SF-539 CNS = system: SF-539 CNS
NCI-H23 lung = system: NCI-H23 lung
LOX IMVI melanoma = system: LOX IMVI melanoma
T-47D breast = system: T-47D breast
K-562 leukemia = system: K-562 leukemia
RPMI-8226 leukemia = system: RPMI-8226 leukemia

CC[C@@]1(O)C(=O)OCc2c1cc1n(c2=O)Cc2cc3cc(OC)ccc3nc2-1
GI50 (HT29 colon): 86.4 nM
TGI (HT29 colon): 0.238 µM
TGI (SK-MEL-5 melanoma): 116 nM and 27.8 nM
GI50 (SW-620 colon): 39.1 nM
TGI (SW-620 colon): 4.79 µM
GI50 (RXF 393 renal): 101 nM
TGI (RXF 393 renal): 82.8 nM and 561 nM
TGI (SF-539 CNS): 0.0361 µM and 0.0962 µM
GI50 (NCI-H23 lung): 27.3 nM
GI50 (LOX IMVI melanoma): 12.5 nM
TGI (LOX IMVI melanoma): 173 nM and 298 nM and 105 nM
GI50 (T-47D breast): 18.5 nM
GI50 (K-562 leukemia): 57.1 nM and 34.4 nM
TGI (K-562 leukemia): > 100 µM
GI50 (RPMI-8226 leukemia): 41.1 nM
TGI (RPMI-8226 leukemia): 8.46 µM and 1.23 µM

O=C1C(Cl)=C(Nc2ccc3cn[nH]c3c2)C(=O)c2ccccc21
GI50 (HT29 colon): 1980 nM
TGI (HT29 colon): 3.72 µM
GI50 (SK-MEL-5 melanoma): 308 nM
TGI (SK-MEL-5 melanoma): 1260 nM
GI50 (SW-620 colon): 1360 nM
TGI (SW-620 colon): 2.95 µM
GI50 (RXF 393 renal): 1540 nM
TGI (RXF 393 renal): 2920 nM
GI50 (SF-539 CNS): 1810 nM
TGI (SF-539 CNS): 3.2 µM
GI50 (NCI-H23 lung): 413 nM
TGI (NCI-H23 lung): 1.81 µM
GI50 (LOX IMVI melanoma): 562 nM
TGI (LOX IMVI melanoma): 1920 nM
GI50 (T-47D breast): 1240 nM
TGI (T-47D breast): 3.27 µM
GI50 (K-562 leukemia): 526 nM
TGI (K-562 leukemia): 2.06 µM
GI50 (RPMI-8226 leukemia): 310 nM
TGI (RPMI-8226 leukemia): 2.43 µM

CN(C)CCNC(=O)c1cccc2cc3ccccc3nc12
GI50 (HT29 colon): 774 nM
TGI (HT29 colon): 3.15 µM
GI50 (SK-MEL-5 melanoma): 1250 nM
TGI (SK-MEL-5 melanoma): 2540 nM
GI50 (SW-620 colon): 775 nM
TGI (SW-620 colon): 3.17 µM
GI50 (RXF 393 renal): 1420 nM
TGI (RXF 393 renal): 4130 nM
GI50 (SF-539 CNS): 1780 nM
TGI (SF-539 CNS): 8.21 µM
GI50 (NCI-H23 lung): 1800 nM
TGI (NCI-H23 lung): 5.13 µM
GI50 (LOX IMVI melanoma): 802 nM
TGI (LOX IMVI melanoma): 3480 nM
GI50 (T-47D breast): 1950 nM
TGI (T-47D breast): 10.6 µM
GI50 (K-562 leukemia): 1880 nM
TGI (K-562 leukemia): 18.1 µM
GI50 (RPMI-8226 leukemia): 1890 nM
TGI (RPMI-8226 leukemia): > 25.2 µM

C=C1C(=O)O[C@H]2[C@H]1CC/C(COC(=O)C(=O)c1c[nH]c3ccc(OC)cc13)=C\CC[C@@]1(C)O[C@@H]21
GI50 (HT29 colon): 2650 nM
TGI (HT29 colon): 6.35 µM
GI50 (SK-MEL-5 melanoma): 5480 nM
TGI (SK-MEL-5 melanoma): 8720 nM
GI50 (SW-620 colon): 4000 nM
TGI (SW-620 colon): 16.2 µM
GI50 (RXF 393 renal): 3210 nM
TGI (RXF 393 renal): 6840 nM
GI50 (SF-539 CNS): 6150 nM
TGI (SF-539 CNS): 10.4 µM
GI50 (NCI-H23 lung): 7010 nM
TGI (NCI-H23 lung): 13.8 µM
GI50 (LOX IMVI melanoma): 1490 nM
TGI (LOX IMVI melanoma): 2350 nM
GI50 (T-47D breast): 6980 nM
TGI (T-47D breast): 12.4 µM
GI50 (K-562 leukemia): > 100000 nM
TGI (K-562 leukemia): > 100 µM
GI50 (RPMI-8226 leukemia): 2210 nM
TGI (RPMI-8226 leukemia): 10.5 µM

CCCCCCCCOc1ccc(/C=N/Nc2cc(C)nc3ccc(Cl)cc23)cc1
GI50 (HT29 colon): 1810 nM
TGI (HT29 colon): 3.34 µM
GI50 (SK-MEL-5 melanoma): 1730 nM
TGI (SK-MEL-5 melanoma): 3160 nM
GI50 (SW-620 colon): 1890 nM
TGI (SW-620 colon): 3.63 µM
GI50 (RXF 393 renal): 1550 nM
TGI (RXF 393 renal): 2940 nM
GI50 (SF-539 CNS): 1860 nM
TGI (SF-539 CNS): 3.29 µM
GI50 (NCI-H23 lung): 1900 nM
TGI (NCI-H23 lung): 3.84 µM
GI50 (LOX IMVI melanoma): 1660 nM
TGI (LOX IMVI melanoma): 3170 nM
GI50 (T-47D breast): 1920 nM
TGI (T-47D breast): 4.09 µM
GI50 (K-562 leukemia): 1660 nM
TGI (K-562 leukemia): 4.24 µM
GI50 (RPMI-8226 leukemia): 2010 nM
TGI (RPMI-8226 leukemia): 4.63 µM

Nc1nc2c(c3ncccc13)C(c1cccc(Cl)c1)Cc1ncccc1-2 (stereo unspecified)
GI50 (HT29 colon): 805 nM
TGI (HT29 colon): 10.8 µM
GI50 (SK-MEL-5 melanoma): 1340 nM
TGI (SK-MEL-5 melanoma): 14700 nM
GI50 (SW-620 colon): 880 nM
TGI (SW-620 colon): 30.8 µM
GI50 (RXF 393 renal): 908 nM
TGI (RXF 393 renal): 4900 nM
GI50 (SF-539 CNS): 1960 nM
TGI (SF-539 CNS): 7.25 µM
GI50 (NCI-H23 lung): 4930 nM
TGI (NCI-H23 lung): 59.4 µM
GI50 (LOX IMVI melanoma): 5120 nM
TGI (LOX IMVI melanoma): 19500 nM
GI50 (T-47D breast): 3280 nM
TGI (T-47D breast): 38.5 µM
GI50 (K-562 leukemia): 530 nM
TGI (K-562 leukemia): > 100 µM
GI50 (RPMI-8226 leukemia): 4190 nM
TGI (RPMI-8226 leukemia): 41.1 µM
